Read-outs that look alike come from different tables or passages of the source.
Key:
[1] = tested on: A/Puerto Rico/8/34 (H1N1) influenza virus; assay type: in vivo, mice; conditions: for Size of chronic post-influenza pneumonia sites (% of the total surface area of the lungs): the lower of the virus doses used, day 15
[2] = tested on: A/Vladivostok/2/09 (H1N1) influenza virus; assay type: in vivo, mice; conditions: for Size of chronic post-influenza pneumonia sites (% of the total surface area of the lungs): the lower of the virus doses used, day 15
[3] = Tamiflu 20 mg/kg, Summary dose, n=28
[4] = Tamiflu 20 mg/kg, Summary dose, n=19

CCOC(=O)C1=C[C@@H](OC(CC)CC)[C@H](NC(C)=O)[C@@H](N)C1.O=P(O)(O)O [Tamiflu, ethyl(3R,4R,5S)-4-acetamido-5-amino-3-(1-ethylpropoxy)-1-cyclohexene-1-carboxylate phosphate, reference compound]
reduction of the death rate compared to the control ([1]; Tamiflu): approximately 70% | Average lifetime (LD) [1, 3]: 13.9 days | Increase in LD [1, 3]: 3.6 days | Index of protection, % [1, 3]: 66.7% | Mortality rate, % [1, 3]: 21.4% | Number of survivors [1, 3]: 22 | Average lifetime (LD) ([1]; Tamiflu 20 mg/kg, […], n=13): 14.4 days | Increase in LD ([1]; Tamiflu 20 mg/kg, […], n=13): 2.1 days | Index of protection, % ([1]; Tamiflu 20 mg/kg, […], n=13): 67.0% | Mortality rate, % ([1]; Tamiflu 20 mg/kg, […], n=13): 15.4% | Number of survivors ([1]; Tamiflu 20 mg/kg, […], n=13): 11 | Average lifetime (LD) ([1]; Tamiflu 20 mg/kg, […], n=15): 13.5 days | Increase in LD ([1]; Tamiflu 20 mg/kg, […], n=15): 5.5 days | Index of protection, % ([1]; Tamiflu 20 mg/kg, […], n=15): 68.5% | Mortality rate, % ([1]; Tamiflu 20 mg/kg, […], n=15): 26.7% | Number of survivors ([1]; Tamiflu 20 mg/kg, […], n=15): 11 | Size of chronic post-influenza pneumonia sites (% of the total surface area of the lungs) ([1]; Tamiflu 20 mg/kg): 15 ± 4; % | activity against the strain ([2]; Tamiflu 20 mg/kg): inactive | Average lifetime (LD) [2, 4]: 12.5 days | Increase in LD [2, 4]: 0.2 days | Index of protection, % [2, 4]: 14.0% | Mortality rate, % [2, 4]: 36.8% | Number of survivors [2, 4]: 12 | Average lifetime (LD) ([2]; Tamiflu 20 mg/kg, […], n=9): 13.4 days | Increase in LD ([2]; Tamiflu 20 mg/kg, […], n=9): 0.3 days | Index of protection, % ([2]; Tamiflu 20 mg/kg, […], n=9): 18.5% | Mortality rate, % ([2]; Tamiflu 20 mg/kg, […], n=9): 22.2% | Number of survivors ([2]; Tamiflu 20 mg/kg, […], n=9): 7 | Average lifetime (LD) ([2]; Tamiflu 20 mg/kg, […], n=10): 11.7 days | Increase in LD ([2]; Tamiflu 20 mg/kg, […], n=10): 0.3 days | Index of protection, % ([2]; Tamiflu 20 mg/kg, […], n=10): 16.7% | Mortality rate, % ([2]; Tamiflu 20 mg/kg, […], n=10): 50.0% | Number of survivors ([2]; Tamiflu 20 mg/kg, […], n=10): 5 | Size of chronic post-influenza pneumonia sites (% of the total surface area of the lungs) ([2]; Tamiflu 20 mg/kg): 15 ± 5%

N-fullerene tris(δ-aminocaproic acid) hydrate [Agent 1]
Average lifetime (LD) ([1]; 30 mg/kg, Summary dose, n=29): 11.8 days | Increase in LD ([1]; 30 mg/kg, Summary dose, n=29): 1.4 days | Mortality rate, % ([1]; 30 mg/kg, Summary dose, n=29): 55.2% | Number of survivors ([1]; 30 mg/kg, Summary dose, n=29): 13 | Average lifetime (LD) ([1]; 30 mg/kg, […], n=14): 13.3 days | Increase in LD ([1]; 30 mg/kg, […], n=14): 1.0 days | Mortality rate, % ([1]; 30 mg/kg, […], n=14): 35.7% | Number of survivors ([1]; 30 mg/kg, […], n=14): 9 | Average lifetime (LD) ([1]; 30 mg/kg, […], n=15): 10.4 days | Increase in LD ([1]; 30 mg/kg, […], n=15): 2.3 days | Mortality rate, % ([1]; 30 mg/kg, […], n=15): 73.3% | Number of survivors ([1]; 30 mg/kg, […], n=15): 4 | Average lifetime (LD) ([1]; 100 mg/kg, Summary dose, n=30): 12.6 days | Increase in LD ([1]; 100 mg/kg, Summary dose, n=30): 2.2 days | Mortality rate, % ([1]; 100 mg/kg, Summary dose, n=30): 40.0% | Number of survivors ([1]; 100 mg/kg, Summary dose, n=30): 18 | Average lifetime (LD) ([1]; 300 mg/kg, Summary dose, n=29): 12.5 days | Increase in LD ([1]; 300 mg/kg, Summary dose, n=29): 2.2 days | Mortality rate, % ([1]; 300 mg/kg, Summary dose, n=29): 31.0% | Number of survivors ([1]; 300 mg/kg, Summary dose, n=29): 20 | Average lifetime (LD) ([1]; 300 mg/kg, […], n=14): 11.3 days | Increase in LD ([1]; 300 mg/kg, […], n=14): 3.2 days | Mortality rate, % ([1]; 300 mg/kg, […], n=14): 42.9% | Number of survivors ([1]; 300 mg/kg, […], n=14): 8 | Average lifetime (LD) ([1]; 300 mg/kg, […], n=15): 13.7 days | Increase in LD ([1]; 300 mg/kg, […], n=15): 1.3 days | Mortality rate, % ([1]; 300 mg/kg, […], n=15): 20.0% | Number of survivors ([1]; 300 mg/kg, […], n=15): 12 | Size of chronic post-influenza pneumonia sites (% of the total surface area of the lungs) ([1]; 300 mg/kg): 13 ± 3% | Average lifetime (LD) ([2]; 30 mg/kg, Summary dose, n=25): 13.7 days | Increase in LD ([2]; 30 mg/kg, Summary dose, n=25): 1.4 days | Mortality rate, % ([2]; 30 mg/kg, Summary dose, n=25): 28.0% | Number of survivors ([2]; 30 mg/kg, Summary dose, n=25): 18 | Average lifetime (LD) ([2]; 30 mg/kg, […], n=12): 13.2 days | Increase in LD ([2]; 30 mg/kg, […], n=12): 1.8 days | Mortality rate, % ([2]; 30 mg/kg, […], n=12): 41.7% | Number of survivors ([2]; 30 mg/kg, […], n=12): 7 | Average lifetime (LD) ([2]; 30 mg/kg, […], n=13): 14.2 days | Increase in LD ([2]; 30 mg/kg, […], n=13): 1.0 days | Mortality rate, % ([2]; 30 mg/kg, […], n=13): 15.4% | Number of survivors ([2]; 30 mg/kg, […], n=13): 11 | Average lifetime (LD) ([2]; 100 mg/kg, Summary dose, n=22): 13.6 days | Increase in LD ([2]; 100 mg/kg, Summary dose, n=22): 1.3 days | Mortality rate, % ([2]; 100 mg/kg, Summary dose, n=22): 27.3% | Number of survivors ([2]; 100 mg/kg, Summary dose, n=22): 16 | Average lifetime (LD) ([2]; 100 mg/kg, […], n=10): 14.0 days | Increase in LD ([2]; 100 mg/kg, […], n=10): 0.8 days | Mortality rate, % ([2]; 100 mg/kg, […], n=10): 20.0% | Number of survivors ([2]; 100 mg/kg, […], n=10): 8 | Average lifetime (LD) ([2]; 100 mg/kg, […], n=12): 13.3 days | Increase in LD ([2]; 100 mg/kg, […], n=12): 1.9 days | Mortality rate, % ([2]; 100 mg/kg, […], n=12): 33.3% | Number of survivors ([2]; 100 mg/kg, […], n=12): 8 | Average lifetime (LD) ([2]; 300 mg/kg, Summary dose, n=26): 14.2 days | Increase in LD ([2]; 300 mg/kg, Summary dose, n=26): 1.8 days | Mortality rate, % ([2]; 300 mg/kg, Summary dose, n=26): 15.4% | Number of survivors ([2]; 300 mg/kg, Summary dose, n=26): 22 | Size of chronic post-influenza pneumonia sites (% of the total surface area of the lungs) ([2]; 300 mg/kg): 7 ± 2%
